Here are results for nine molecules from PMC8994094 (Molecular Diversity, 2022).

Molecules are shown by their SMILES. “And” between values parts separate entries of the source, which are not always exact repeats. Equal entries are not always repeated.

One may read the Ki as the dissociation constant of the complex between target and ligand, obtained from inhibition or displacement. High values mean lower affinity, low ones higher affinity.

One data set addresses hCA I (Homo sapiens, UniProt P00915). Put plainly: hCA I esterase activity/kinetic assay. The data set is classed as biochemical. The note with it: for hCA I Inhibition type: Lineweaver-Burk; for Selectivity index AAZ/hCA I: ratio of KI of acetazolamide to KI of compound; for Selectivity index hCA II/hCA I: ratio of KI values.
The target of the next data set is hCA II (Homo sapiens, UniProt P00918). The data set is described as follows: hCA II esterase activity/kinetic assay. The data set is classed as biochemical. The note with it: for hCA II Inhibition type: Lineweaver-Burk; for Selectivity index AAZ/hCA II: ratio of KI of acetazolamide to KI of compound; for Selectivity index hCAI/hCA II: ratio of KI values.
Data set [1] deals with cortex neuron cells and neuroblastoma SH-SY5Y cell line. The data set is described as follows: MTT cytotoxicity test. The data set is classed as cell-based. The note with it: for cell viability at low concentrations: at 10 and 100 μM; for toxicity at effective concentrations on target enzymes: effective concentrations on AChE and hCAs. (In general: Tetrazolium assays rely on reduction of a dye to a coloured formazan, in cell work by metabolically active cells.)

For data set [2], the target named is AChE from Electrophorus electricus (Electrophorus electricus, UniProt O42275). The data set is described as follows: AChE activity/kinetic assay. The format is biochemical. The settings on record: for AChE Inhibition type: Lineweaver-Burk; for Selectivity index THA/AChE: ratio of KI of tacrine to KI of compound.
Sequence of AChE from Electrophorus electricus (O42275 24-633): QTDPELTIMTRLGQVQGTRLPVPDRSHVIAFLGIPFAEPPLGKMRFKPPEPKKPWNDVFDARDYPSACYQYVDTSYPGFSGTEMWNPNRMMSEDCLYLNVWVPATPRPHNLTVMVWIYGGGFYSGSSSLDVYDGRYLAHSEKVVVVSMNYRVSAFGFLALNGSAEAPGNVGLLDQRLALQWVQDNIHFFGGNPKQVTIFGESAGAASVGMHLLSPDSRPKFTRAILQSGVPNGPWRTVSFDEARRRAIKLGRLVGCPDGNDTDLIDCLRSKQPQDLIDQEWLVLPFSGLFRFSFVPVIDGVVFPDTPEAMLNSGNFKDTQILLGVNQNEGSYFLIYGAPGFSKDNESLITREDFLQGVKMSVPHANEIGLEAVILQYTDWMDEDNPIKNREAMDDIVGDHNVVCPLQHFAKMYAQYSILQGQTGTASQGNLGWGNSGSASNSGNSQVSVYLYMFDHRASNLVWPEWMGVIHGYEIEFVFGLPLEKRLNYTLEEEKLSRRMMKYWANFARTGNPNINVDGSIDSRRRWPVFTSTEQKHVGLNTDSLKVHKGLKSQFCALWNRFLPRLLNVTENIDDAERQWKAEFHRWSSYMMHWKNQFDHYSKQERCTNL

Sequence of hCA I (P00915 whole entry): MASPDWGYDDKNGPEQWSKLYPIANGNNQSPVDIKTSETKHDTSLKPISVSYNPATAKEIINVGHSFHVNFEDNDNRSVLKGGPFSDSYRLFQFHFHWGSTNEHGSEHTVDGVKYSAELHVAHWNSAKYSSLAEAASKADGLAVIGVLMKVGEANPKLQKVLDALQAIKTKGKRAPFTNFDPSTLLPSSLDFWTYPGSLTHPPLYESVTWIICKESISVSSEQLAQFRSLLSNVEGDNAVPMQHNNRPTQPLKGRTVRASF

Regarding `CCSc1nnc(-c2ccc(S(=O)(=O)NC(=O)c3ccccc3)cc2)o1` [6a, N-([4-(5-(ethylthio)-1,3,4-oxadiazol-2-yl)phenyl]sulfonyl)benzamide], at hCA I, the affinity corresponds to a Ki of 21.6 ± 0.25 nM, the “hCA I Inhibition type” value is on record as “Competitive”, the “Selectivity index AAZ/hCA I” value worked out at 20.29 and the “Selectivity index hCA II/hCA I” value amounted to 0.43. At hCA II, affinity was put at a Ki of 9.33 ± 0.13 nM; the “hCA II Inhibition type” value is “Competitive”; the “Selectivity index AAZ/hCA II” value is 10.5 and 10.53; the “Selectivity index hCAI/hCA II” value turned out to be 2.32. Also, in data set [1], the “cell viability at low concentrations” value is reported as “high cell viability” and the “toxicity at effective concentrations on target enzymes” value (shortened to “toxicity at effective concentrations”) is listed as “non-toxic”. Also, in data set [2], affinity was put at a Ki of 52.5 ± 1.27 nM, the “AChE Inhibition type” value is “Competitive” and the “Selectivity index THA/AChE” value came to 2.96.

For `CCSc1nnc(-c2ccc(S(=O)(=O)NC(=O)c3ccc(C)cc3)cc2)o1` [6b, N-([4-(5-(ethylthio)-1,3,4-oxadiazol-2-yl)phenyl]sulfonyl)-4-methylbenzamide], at hCA I, the Ki worked out at 59.62 ± 0.53 nM, the “hCA I Inhibition type” value is reported as “Noncompetitive”, the “Selectivity index AAZ/hCA I” value turned out to be 7.37 and the “Selectivity index hCA II/hCA I” value is recorded as 0.30. Besides, on hCA II, the affinity, expressed as Ki, was 17.8 ± 0.23 nM; the “hCA II Inhibition type” value is reported as “Competitive”; the “Selectivity index AAZ/hCA II” value was 5.51; the “Selectivity index hCAI/hCA II” value turned out to be 3.34. For the same molecule, in data set [2], the Ki stood at 47 ± 1.71 nM, the “AChE Inhibition type” value is given as “Competitive” and the “Selectivity index THA/AChE” value was determined as 3.30.

On to `CCCC(=O)NS(=O)(=O)c1ccc(-c2nnc(SCC)o2)cc1` [6d, N-([4-(5-(ethylthio)-1,3,4-oxadiazol-2-yl)phenyl]sulfonyl)butyramide], for which, at hCA I, the affinity, expressed as Ki, was 18.7 ± 0.21 nM; the “hCA I Inhibition type” value is reported as “Competitive”; the “Selectivity index AAZ/hCA I” value is 23.5 and 23.54; the “Selectivity index hCA II/hCA I” value was 1.24. Besides, at hCA II, the Ki came out at 23.2 ± 0.26 nM, the “hCA II Inhibition type” value was “Competitive”, the “Selectivity index AAZ/hCA II” value was found to be 4.24 and the “Selectivity index hCAI/hCA II” value is on record as 0.81. For the same molecule, in data set [1], the “cell viability at low concentrations” value is on record as “high cell viability” and the “toxicity at effective concentrations” value was “non-toxic”. In data set [2], the Ki came out at 48.4 ± 1.75 nM, the “AChE Inhibition type” value was “Competitive” and the “Selectivity index THA/AChE” value is reported as 3.21.

For `CCCCC(=O)NS(=O)(=O)c1ccc(-c2nnc(SCC)o2)cc1` [6e, N-([4-(5-(ethylthio)-1,3,4-oxadiazol-2-yl)phenyl]sulfonyl)pentanamide], at hCA I, the Ki stood at 47.15 ± 0.36 nM, the “hCA I Inhibition type” value is reported as “Competitive”, the “Selectivity index AAZ/hCA I” value is listed as 9.31 and the “Selectivity index hCA II/hCA I” value was determined as 0.79. At hCA II, the Ki was determined as 37.24 ± 0.14 nM, the “hCA II Inhibition type” value is reported as “Competitive”, the “Selectivity index AAZ/hCA II” value amounted to 2.64 and the “Selectivity index hCAI/hCA II” value worked out at 1.27. Moreover, in data set [2], the affinity, expressed as Ki, was 41.2 ± 0.95 nM; the “AChE Inhibition type” value is “Noncompetitive”; the “Selectivity index THA/AChE” value turned out to be 3.77.

For `CCCCCC(=O)NS(=O)(=O)c1ccc(-c2nnc(SCC)o2)cc1` [6f, N-([4-(5-(ethylthio)-1,3,4-oxadiazol-2-yl)phenyl]sulfonyl)hexanamide], at hCA I, the Ki amounted to 33.1 ± 0.47 nM, the “hCA I Inhibition type” value is on record as “Competitive”, the “Selectivity index AAZ/hCA I” value amounted to 13.27 and the “Selectivity index hCA II/hCA I” value came to 0.88. Besides, at hCA II, affinity was put at a Ki of 29.19 ± 0.1 nM, the “hCA II Inhibition type” value is “Competitive”, the “Selectivity index AAZ/hCA II” value is reported as 3.37 and the “Selectivity index hCAI/hCA II” value turned out to be 1.13. For the same molecule, in data set [2], the Ki is 39.3 ± 1.13 nM, the “AChE Inhibition type” value is listed as “Competitive” and the “Selectivity index THA/AChE” value is listed as 3.95.

Regarding `CCCCCCC(=O)NS(=O)(=O)c1ccc(-c2nnc(SCC)o2)cc1` [6g, N-([4-(5-(ethylthio)-1,3,4-oxadiazol-2-yl)phenyl]sulfonyl)heptanamide], on hCA I, the inhibitory constant (Ki) amounted to 23 ± 0.29 nM, the “hCA I Inhibition type” value is recorded as “Competitive”, the “Selectivity index AAZ/hCA I” value is on record as 19.09 and the “Selectivity index hCA II/hCA I” value is 1.33. In addition, on hCA II, the affinity corresponds to a Ki of 30.71 ± 0.09 nM, the “hCA II Inhibition type” value was “Competitive”, the “Selectivity index AAZ/hCA II” value amounted to 3.20 and the “Selectivity index hCAI/hCA II” value is recorded as 0.75. Also, in data set [2], the Ki was determined as 49.7 ± 2.13 nM, the “AChE Inhibition type” value is listed as “Competitive” and the “Selectivity index THA/AChE” value was found to be 3.12.

Regarding `CCCCCCCC(=O)NS(=O)(=O)c1ccc(-c2nnc(SCC)o2)cc1` [6h, N-([4-(5-(ethylthio)-1,3,4-oxadiazol-2-yl)phenyl]sulfonyl)octanamide], at hCA I, the affinity corresponds to a Ki of 34.6 ± 0.51 nM, the “hCA I Inhibition type” value is on record as “Competitive”, the “Selectivity index AAZ/hCA I” value was 12.69 and the “Selectivity index hCA II/hCA I” value turned out to be 3.49. Also, on hCA II, the affinity corresponds to a Ki of 120.8 ± 0.34 nM, the “hCA II Inhibition type” value was “Noncompetitive”, the “Selectivity index AAZ/hCA II” value was 0.81 and the “Selectivity index hCAI/hCA II” value turned out to be 0.29. Further, in data set [1], the “cell viability at low concentrations” value is on record as “high cell viability” and the “toxicity at effective concentrations” value is “non-toxic”. In data set [2], the affinity, expressed as Ki, was 23.1 ± 0.77 nM; the “AChE Inhibition type” value is listed as “Competitive”; the “Selectivity index THA/AChE” value is 6.7 and 6.72.

As to `CCCCCCCCC(=O)NS(=O)(=O)c1ccc(-c2nnc(SCC)o2)cc1` [6i, N-([4-(5-(ethylthio)-1,3,4-oxadiazol-2-yl)phenyl]sulfonyl)nonanamide], at hCA I, the Ki stood at 38.4 ± 0.46 nM, the “hCA I Inhibition type” value was “Competitive”, the “Selectivity index AAZ/hCA I” value came to 11.44 and the “Selectivity index hCA II/hCA I” value was 2.93. Besides, on hCA II, the Ki came to 112.7 ± 0.36 nM, the “hCA II Inhibition type” value is recorded as “Competitive”, the “Selectivity index AAZ/hCA II” value was found to be 0.87 and the “Selectivity index hCAI/hCA II” value came out at 0.34. Moreover, in data set [2], affinity was put at a Ki of 47.6 ± 1.75 nM, the “AChE Inhibition type” value is listed as “Competitive” and the “Selectivity index THA/AChE” value was 3.27.

Consider `CCCCCCCCCCCC(=O)NS(=O)(=O)c1ccc(-c2nnc(SCC)o2)cc1` [6j, N-([4-(5-(ethylthio)-1,3,4-oxadiazol-2-yl)phenyl]sulfonyl)dodecanamide], for which, at hCA I, the Ki was determined as 31 ± 0.41 nM, the “hCA I Inhibition type” value is given as “Competitive”, the “Selectivity index AAZ/hCA I” value is 14.16 and the “Selectivity index hCA II/hCA I” value stood at 0.95. Moreover, at hCA II, the Ki came out at 29.4 ± 0.13 nM, the “hCA II Inhibition type” value is “Competitive”, the “Selectivity index AAZ/hCA II” value was determined as 3.34 and the “Selectivity index hCAI/hCA II” value was 1.05. In data set [2], the Ki is 46.7 ± 1.64 nM, the “AChE Inhibition type” value is reported as “Competitive” and the “Selectivity index THA/AChE” value came to 3.33.
